Experimental findings from patent publication US8629242B2, “Methods of inhibiting calcineurin with ApoE analogs” (Cognosci, Inc., priority 2007, dated 2014) are described below.

Where a SMILES comes first, the peptide text is derived from it. [ ]: non-standard residue; d: D form. Aib = CC(C)(N)C(=O)O

Assay [1] deals with myelin oligodendrocyte glycoprotein (MOG)-induced experimental autoimmune encephalomyelitis (EAE) model. The assay is described as follows: MOG-induced EAE model of multiple sclerosis, treatment after disease onset. It is filed as in vivo, C57BL/6J mice. The following applies: for maximal severity of disability / progress of the disease (clinical score) / mice exhibiting complete remission: 1 mg/kg i.p. daily from first CS≥2; for burden of disability (area under curve of clinical score): 1 mg/kg i.p., data not shown; for demyelination and infiltration of peripheral mononuclear cells in spinal cord: Luxol Fast Blue and eosin staining; for mice exhibiting complete remission: dpi 35, saline control 22%. Here is the method: FIG. 1. […] (B) Percentage of animals in remission. Statistical analysis was conducted by ANOVA comparing the CS after day 18, which was defined as the recovery phase. FIG. 2. Representative histopathology of EAE in mice treated with COG 112 or saline control. 5 μm thick sections were stained with Luxol fast blue and eosin to reveal demyelination and peripheral infiltrates. The left panels show the pathological changes in spinal cord from cervical (A), thoracic (B) and lumbar (C) segments of a saline-treated control animal. Demyelination is shown as loss of blue staining in white matter and peripheral infiltrates are stained with purple particles. Panels D, E and F show the corresponding segments of a COG 112-treated animal where no obvious demyelination is observed. The boxed-insets of panel A and D are magnified 10× in panel G and H, respectively. FIG. 3. Profiling and quantification of T cell subset infiltrates in the spinal cords of animals on 21 days post-immunization that were treated with or without COG 112. Single-cell suspensions of spinal cord were stained with anti-CD3, CD4, and CD8 mAbs. Frequency of CD3+CD45+ cytometry (T cell) is represented in control (A) and COG112-treated (C) animals. Frequency of CD4+ and CD8+ T cells is represented in saline control (B) and COG 112-treated (D) mice. Total cell number for each of the specific cell surface markers is calculated and expressed as number per spinal cord (E). […] C57BL/6J mice were first immunized with MOG to create an EAE model. […] One of the pathological hallmarks of MS is extensive demyelination of the myelin sheath surrounding neurons accompanied by massive infiltration of peripheral leukocytes into the brain and the spinal cord, all of which contribute to the clinical manifestations of neurological disability. We further examined the effects of COG peptides on demyelination and leukocyte-influx into the spinal cords by Luxol Fast Blue (LFB) and Eosin staining. […] Panel G is a magnified view of the boxed area in A. […] Single-cell suspensions of spinal cord were stained with anti-CD3, CD4, and CD8 mAbs. As shown in FIGS. 3A & C, the frequency of CD3+ T cells in the spinal cords of mice treated with COG 112 was reduced as compared to vehicle controls on dpi 21.

The subject of assay [2] is enriched OPC cultures. The assay is described as follows: Number of mature oligodendrocytes after differentiation of enriched OPC culture. It is filed as cell-based, rat. To be noted: 2 μM COG 133, 1 μM COG 112 or 1 μM COG 68 for four days, then six days differentiation without analog. As to the method:
FIG. 11. ApoE analogs increase the number of mature oligodendrocytes in culture. ApoE analogs (COG 133, COG 112, and COG 68) were added to enriched OPC culture in proliferation media for four days. Cultures were then differentiated in the absence of the ApoE analogs. Cells were labeled with a GST-π antibody to detect mature oligodendrocytes.
Since COG 112 increased the proliferation of OPCs, we next examined whether the ApoE analogs could also increase the number of mature oligodendrocytes. Enriched OPC cultures were prepared as described for the previous experiment. 2 μM COG 133 (SEQ ID NO: 1), 1 μM COG 112 (SEQ ID NO: 5), or 1 μM COG 68 (Ac-[…]-NH2; SEQ ID NO: 7) were added to the enriched OPC cultures in proliferation media for four days. The media was then replaced with differentiation medium without the ApoE analogs for an additional six days. Cells were labeled with a GST-π antibody to detect mature oligodendrocytes.

The test system of assay [3] is macrophage cell line U937. The assay is described as follows: Superoxide release in PMA+LPS-treated U937 macrophages. To be noted: 10 μM, IFN-γ-differentiated cells. It is filed as cell-based, human. Here is the method:
FIG. 16. ApoE analogs suppress the release of nitric oxide (A) and TNF-α (B) in LPS-treated BV2 microglia cells. Series concentrations of ApoE analogs were added to culture medium together with LPS (10 ng/ml). 24 hours later, culture medium was collected for measurement of NO by Griess assay or TNF-α by ELISA. (C) ApoE analogs inhibit superoxide formation in PMA+LPS-treated human macrophage cell line U937. ApoE analogs (10 μM) were added to the cell medium of human macrophage U937 5 minutes prior to PMA+LPS treatment. The release of superoxide in culture medium was measured by Luminol assay kit (Calbiochem).
To determine the anti-oxidant effect of the different ApoE analogs, the human macrophage cell line U937 was differentiated with IFN-γ (40 U/ml) for 4 days and treated with phorbol-12-myristate-13-acetate (PMA) and LPS with or without ApoE analogs (10 μM). The release of superoxide in the medium was measured by Luminol Superoxide Assay kit (Calbiochem, CA).

Assay [4] relates to microglia cell line BV2. The assay is described as follows: LPS-induced NO and TNF-α release in BV2 microglia. It is filed as cell-based, murine. To be noted: LPS 10 ng/ml, 24 hours. Here is the method: FIG. 16. […] Series concentrations of ApoE analogs were added to culture medium together with LPS (10 ng/ml). 24 hours later, culture medium was collected for measurement of NO by Griess assay or TNF-α by ELISA. […] ApoE analogs (10 μM) were added to the cell medium of human macrophage U937 5 minutes prior to PMA+LPS treatment. The release of superoxide in culture medium was measured by Luminol assay kit (Calbiochem).
The murine microglia cell line BV2 was used as the first screening platform to compare the potency of ApoE analogs in anti-inflammatory activity. In response to LPS, BV2 produces amounts of reactive radical NO and inflammatory cytokines, such as TNF-α and IL-6. We stimulated the cells with LPS (10 ng/ml) in the presence of several concentrations of each of the ApoE analogs. We measured NO in medium by Griess assay and TNF-α by ELISA 24 hours after LPS stimulation of the cells. The IC50 value was calculated for each of the ApoE analogs.

With `CC(=O)N[C@@H](CC(C)C)C(=O)N[C@@H](CCCNC(=N)N)C(=O)N[C@H](C(=O)N[C@@H](CCCNC(=N)N)C(=O)N[C@@H](CC(C)C)C(=O)N[C@@H](C)C(=O)N[C@@H](CO)C(=O)N[C@@H](Cc1c[nH]cn1)C(=O)N[C@@H](CC(C)C)C(=O)N[C@@H](CCCNC(=N)N)C(=O)N[C@@H](CCCCN)C(=O)N[C@@H](CC(C)C)C(=O)N[C@@H](CCCNC(=N)N)C(=O)N[C@@H](CCCCN)C(=O)N[C@@H](CCCNC(=N)N)C(=O)N[C@@H](CC(C)C)C(=O)N[C@@H](CC(C)C)C(N)=O)C(C)C` [COG 133], in assay [1], the “maximal severity of disability” value is “significantly reduced the maximal severity of disability”; the “progress of the disease (clinical score)” value is “significantly slowed the deleterious progress of the disease”; the “burden of disability (area under curve of clinical score)” value is “significantly reduced the burden of disability”; the “demyelination and infiltration of peripheral mononuclear cells in spinal cord” value is on record as “greatly reduced”. Besides, the “mice exhibiting complete remission” value in assay [1] is listed as 50%. Moreover, the “number of mature oligodendrocytes (GST-π)” value in assay [2] is “significantly increased the number of mature oligodendrocytes”.

Regarding `CC(=O)NC(=N)NCCC[C@H](NC(=O)[C@H](CCCCN)NC(=O)[C@H](CCCNC(=N)N)NC(=O)[C@H](CC(C)C)NC(=O)[C@H](CCCCN)NC(=O)[C@H](CCCNC(=N)N)NC(=O)[C@H](CC(C)C)NC(=O)C(C)(C)NC(=O)[C@H](CO)NC(=O)[C@H](C)NC(=O)[C@H](CC(C)C)NC(=O)[C@H](CCCNC(=N)N)NC(=O)[C@@H](NC(=O)[C@H](CCCNC(=N)N)NC(=O)[C@H](CC(C)C)NC(C)=O)C(C)C)C(=O)N[C@@H](CC(C)C)C(=O)N[C@@H](CC(C)C)C(N)=O` [COG 345, acetyl-LRVRLAS-Aib-LRKLRK(acetyl-Arg)LL-amide] (Ac-LRVRLAS[Aib]LRKLRKR(Ac)LL-NH2), the superoxide release entry in assay [3] is reported as “significantly inhibited superoxide release”. Further, the “activity in suppression of microglia activation (NO by Griess assay, TNF-α by ELISA)” value in assay [4] is “clearly superior to that of COG 133”.

For “Ac-RQIKIWFQNRRMKWKKCLRVRLASHLRKLRKRLL-NH2 [COG 112]”, in assay [1], the “maximal severity of disability” value was “significantly reduced the maximal severity of disability”; the “progress of the disease (clinical score)” value is on record as “significantly slowed the deleterious progress of the disease”; the “burden of disability (area under curve of clinical score)” value is “significantly reduced the burden of disability”; the “demyelination and infiltration of peripheral mononuclear cells in spinal cord” value is listed as “greatly reduced”. Further, in assay [1], the “mice exhibiting complete remission” value was determined as 71%. Further, in assay [1] (dpi 21, vs vehicle), the “CD4+ T cell infiltration into the spinal cord” value was “significantly reduced”, the “frequency of CD3+ T cells in the spinal cord” value is on record as “reduced” and the “number of CD8+ T cells in the spinal cord” value was “no significant difference”. Besides, in assay [3], the superoxide release entry is given as “significantly inhibited superoxide release”. In addition, the “number of mature oligodendrocytes (GST-π)” value in assay [2] is on record as “significantly increased the number of mature oligodendrocytes”. In assay [4], the “activity in suppression of microglia activation (NO by Griess assay, TNF-α by ELISA)” value is “clearly superior to that of COG 133”.
